# What was measured:
# K562 = experiment: Cytotoxicity against human K562 cells after 72 hrs by WST-8 assay; format: functional, cell-based; conditions: K562, 72 h
# [1] = biological target: Tyrosine-protein kinase ABL1 (Homo sapiens) (UniProt P00519); conditions: at 10 µM
# Description: Inhibition of human recombinant ABL at 10 uM relative to control
# HCT-116 = experiment: Cytotoxicity against human HCT116 cells after 72 hrs by WST-8 assay; format: functional, cell-based; conditions: HCT-116, 72 h
# U-937 = experiment: Cytotoxicity against human U937 cells after 72 hrs by WST-8 assay; format: functional, cell-based; conditions: U-937, 72 h
# A549 = experiment: Cytotoxicity against human A549 cells after 72 hrs by WST-8 assay; format: functional, cell-based; conditions: A549, 72 h
# [2] = biological target: Epidermal growth factor receptor (Homo sapiens) (UniProt P00533); conditions: at 10 µM
# Epidermal growth factor receptor (Homo sapiens), sequence (P00533 whole entry): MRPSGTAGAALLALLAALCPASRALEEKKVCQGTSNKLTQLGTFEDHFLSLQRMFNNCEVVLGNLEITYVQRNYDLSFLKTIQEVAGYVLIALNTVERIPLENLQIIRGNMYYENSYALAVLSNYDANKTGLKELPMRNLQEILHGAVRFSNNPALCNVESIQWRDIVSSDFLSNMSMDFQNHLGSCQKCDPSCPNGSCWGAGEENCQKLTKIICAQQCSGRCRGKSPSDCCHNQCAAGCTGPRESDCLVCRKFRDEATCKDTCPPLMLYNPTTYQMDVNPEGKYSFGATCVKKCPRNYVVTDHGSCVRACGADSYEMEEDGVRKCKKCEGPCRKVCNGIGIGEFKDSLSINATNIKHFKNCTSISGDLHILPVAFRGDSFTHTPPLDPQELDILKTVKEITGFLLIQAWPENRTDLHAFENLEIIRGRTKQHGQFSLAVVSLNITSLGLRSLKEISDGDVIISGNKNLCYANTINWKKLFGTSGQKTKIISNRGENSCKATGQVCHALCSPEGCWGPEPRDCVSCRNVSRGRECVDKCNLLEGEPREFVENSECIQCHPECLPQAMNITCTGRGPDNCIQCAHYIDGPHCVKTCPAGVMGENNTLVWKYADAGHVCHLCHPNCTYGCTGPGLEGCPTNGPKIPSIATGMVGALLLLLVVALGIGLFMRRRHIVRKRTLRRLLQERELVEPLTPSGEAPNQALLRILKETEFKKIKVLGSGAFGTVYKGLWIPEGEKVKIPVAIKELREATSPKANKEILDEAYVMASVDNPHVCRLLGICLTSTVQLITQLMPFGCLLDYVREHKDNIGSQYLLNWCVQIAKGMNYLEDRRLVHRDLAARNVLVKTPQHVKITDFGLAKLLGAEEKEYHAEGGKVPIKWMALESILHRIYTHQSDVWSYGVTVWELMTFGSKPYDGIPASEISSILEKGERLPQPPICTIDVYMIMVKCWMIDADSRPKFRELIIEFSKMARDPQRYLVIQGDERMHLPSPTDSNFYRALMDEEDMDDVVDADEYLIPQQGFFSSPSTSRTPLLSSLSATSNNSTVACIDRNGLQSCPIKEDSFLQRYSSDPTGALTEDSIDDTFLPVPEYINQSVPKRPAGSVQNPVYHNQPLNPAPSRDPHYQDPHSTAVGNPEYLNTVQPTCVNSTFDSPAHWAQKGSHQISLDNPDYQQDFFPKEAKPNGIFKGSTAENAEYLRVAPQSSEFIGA
# Description: Inhibition of EGFR (unknown origin) at 10 uM relative to control
# NCI-H661 = experiment: Cytotoxicity against human NCI-H661 cells after 72 hrs by WST-8 assay; format: functional, cell-based; conditions: NCI-H661, 72 h
# DLD-1 = experiment: Cytotoxicity against human DLD1 cells after 72 hrs by WST-8 assay; format: functional, cell-based; conditions: DLD-1, 72 h
# [3] = biological target: Proto-oncogene tyrosine-protein kinase Src (Homo sapiens) (UniProt P12931); conditions: at 10 µM
# Proto-oncogene tyrosine-protein kinase Src (Homo sapiens), sequence (P12931 2-536 limits assumed): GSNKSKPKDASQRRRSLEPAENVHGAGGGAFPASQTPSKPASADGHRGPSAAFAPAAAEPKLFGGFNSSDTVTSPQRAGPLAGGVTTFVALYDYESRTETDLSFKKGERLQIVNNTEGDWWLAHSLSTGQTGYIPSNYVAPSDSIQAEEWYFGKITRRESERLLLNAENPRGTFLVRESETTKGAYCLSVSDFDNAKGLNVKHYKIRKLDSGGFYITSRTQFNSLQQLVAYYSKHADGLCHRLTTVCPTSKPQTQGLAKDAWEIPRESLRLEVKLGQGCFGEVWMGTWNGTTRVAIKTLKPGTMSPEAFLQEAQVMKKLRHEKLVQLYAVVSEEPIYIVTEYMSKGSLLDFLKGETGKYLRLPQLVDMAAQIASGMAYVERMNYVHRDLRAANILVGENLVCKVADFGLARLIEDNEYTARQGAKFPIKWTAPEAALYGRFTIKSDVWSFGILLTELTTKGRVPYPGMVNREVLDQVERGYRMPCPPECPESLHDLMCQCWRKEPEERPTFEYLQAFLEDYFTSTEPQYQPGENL
# Description: Inhibition of human recombinant SRC at 10 uM relative to control
# Tyrosine-protein kinase ABL1 (Homo sapiens), sequence (P00519 whole entry): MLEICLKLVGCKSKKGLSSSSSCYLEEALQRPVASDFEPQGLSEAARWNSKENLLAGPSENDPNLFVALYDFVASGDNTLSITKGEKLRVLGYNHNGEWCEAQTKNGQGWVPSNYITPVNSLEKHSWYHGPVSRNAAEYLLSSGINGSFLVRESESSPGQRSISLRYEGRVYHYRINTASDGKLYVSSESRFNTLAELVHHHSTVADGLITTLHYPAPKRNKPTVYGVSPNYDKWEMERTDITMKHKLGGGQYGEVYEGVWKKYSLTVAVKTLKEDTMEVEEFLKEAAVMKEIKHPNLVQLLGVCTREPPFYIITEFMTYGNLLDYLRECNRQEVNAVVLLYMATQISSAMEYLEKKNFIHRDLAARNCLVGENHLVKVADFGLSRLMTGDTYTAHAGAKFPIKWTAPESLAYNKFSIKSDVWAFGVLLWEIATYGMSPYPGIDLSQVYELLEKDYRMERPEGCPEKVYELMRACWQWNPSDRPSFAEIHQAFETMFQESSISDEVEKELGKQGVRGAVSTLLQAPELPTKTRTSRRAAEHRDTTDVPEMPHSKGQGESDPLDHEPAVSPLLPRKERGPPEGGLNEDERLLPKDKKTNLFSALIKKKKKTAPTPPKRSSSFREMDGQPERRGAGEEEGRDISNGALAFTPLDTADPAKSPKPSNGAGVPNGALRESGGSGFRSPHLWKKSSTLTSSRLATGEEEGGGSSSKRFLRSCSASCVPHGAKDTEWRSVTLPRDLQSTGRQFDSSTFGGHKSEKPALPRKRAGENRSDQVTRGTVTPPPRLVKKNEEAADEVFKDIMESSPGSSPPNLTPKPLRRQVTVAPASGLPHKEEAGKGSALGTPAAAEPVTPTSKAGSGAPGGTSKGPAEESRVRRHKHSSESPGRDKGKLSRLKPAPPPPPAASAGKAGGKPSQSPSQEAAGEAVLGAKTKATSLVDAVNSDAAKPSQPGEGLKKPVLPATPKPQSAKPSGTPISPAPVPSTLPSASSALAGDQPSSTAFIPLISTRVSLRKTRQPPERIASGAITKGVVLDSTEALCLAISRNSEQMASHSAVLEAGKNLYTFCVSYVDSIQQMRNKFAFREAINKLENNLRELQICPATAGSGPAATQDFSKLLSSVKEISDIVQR
Structure (SMILES),inhibition [1] [%],inhibition [2] [%],inhibition [3] [%],IC50 (K562) [µM],IC50 (HCT-116) [µM],IC50 (U-937) [µM],IC50 (A549) [µM],IC50 (NCI-H661) [µM],IC50 (DLD-1) [µM]
COc1cc2c(Nc3nc4ccc(C(=O)Nc5c(C)cc(C)cc5C)cc4s3)ncnc2cc1OCCCN1CCCC1,82.3,48.7,91.8,4.3,5.8,4.6,8.9,9.6,5.9
COc1cc2c(Nc3nc4ccc(C(=O)Nc5c(C)cccc5Cl)cc4s3)ncnc2cc1OCCCN1CCOCC1,43.7,10.4,34.3,16.4,> 100,22.6,75.2,> 100,> 100
COc1cc2c(Nc3nc4ccc(C(=O)Nc5c(C)cccc5Cl)cc4s3)ncnc2cc1OCCCN1CCC(C)CC1,56.2,23.7,67.4,8.3,9.1,9.2,9.7,7.9,11.3
Cc1nc(Nc2ncc(C(=O)Nc3c(C)cccc3Cl)s2)cc(N2CCN(CCO)CC2)n1 [DASATINIB],,,,11.9,5.3,12.2,8.2,7.8,4.6
COc1cc2c(Nc3nc4ccc(C(=O)Nc5c(C)cc(C)cc5C)cc4s3)ncnc2cc1OCCCN1CCCCC1,81.6,37.9,69.7,9.3,16.9,12.2,10.3,10,24.5
COc1cc2c(Nc3nc4ccc(C(=O)Nc5c(C)cc(C)cc5C)cc4s3)ncnc2cc1OCCCN1CCCCC1C (configuration not stated),,65.8,89.2,3.5,5.6,3.6,5.8,8.8,5.7
COc1cc2c(Nc3nc4ccc(C(=O)Nc5c(C)cccc5Cl)cc4s3)ncnc2cc1OCCCN1CCCCC1,49.9,28.7,83.3,12.5,23.4,8.6,12.8,13.8,14.7
COc1cc2c(Nc3nc4ccc(C(=O)Nc5c(C)cccc5Cl)cc4s3)ncnc2cc1OCCCN1CCCC1,78.7,15.6,55.7,13.3,63.8,19.9,38.6,45.5,60.7
COc1cc2c(Nc3nc4ccc(C(=O)Nc5c(C)cccc5Cl)cc4s3)ncnc2cc1OCCCN1CCCCC1C (configuration not stated),71.1,53.6,78.9,6.8,7.2,7,6.7,5.3,6.7
COc1cc2c(Nc3nc4ccc(C(=O)Nc5c(C)cc(C)cc5C)cc4s3)ncnc2cc1OCCCN1CCOCC1,76.5,45.1,80.6,20,5.6,24.2,16.3,18.4,5.8
COc1cc2c(Nc3nc4ccc(C(=O)Nc5c(C)cc(C)cc5C)cc4s3)ncnc2cc1OCCCN1CCC(C)CC1,68.2,36.3,78.6,5.9,6.9,5.6,5.4,7.7,7

# The next lines start with results.
inhibition [1] [%],inhibition [2] [%],inhibition [3] [%],Structure (SMILES),IC50 (K562) [µM],IC50 (HCT-116) [µM],IC50 (U-937) [µM],IC50 (A549) [µM],IC50 (NCI-H661) [µM],IC50 (DLD-1) [µM]
76.3,25.4,65.3,CCN(CC)CCCOc1cc2ncnc(Nc3nc4ccc(C(=O)Nc5c(C)cc(C)cc5C)cc4s3)c2cc1OC,6.8,7.5,4.3,5.7,7.3,6.8
34.3,21.2,39.9,COc1cc2c(Nc3nc4ccc(C(=O)Nc5c(C)cccc5C)cc4s3)ncnc2cc1OCCCN1CCCC1,15.7,> 100,18.9,83.8,> 100,> 100
49.2,25.4,49,COc1cc2c(Nc3nc4ccc(C(=O)Nc5c(C)cccc5C)cc4s3)ncnc2cc1OCCCN1CCCCC1C (configuration not stated),12.3,> 100,10.8,75.7,84.4,> 100
54.2,13.3,56.5,COc1cc2c(Nc3nc4ccc(C(=O)Nc5c(C)cccc5C)cc4s3)ncnc2cc1OCCCN1CCC(C)CC1,15.8,> 100,11.2,89.7,72.3,> 100
39,17.3,43.4,COc1cc2c(Nc3nc4ccc(C(=O)Nc5c(C)cccc5C)cc4s3)ncnc2cc1OCCCN1CCCCC1,13.7,> 100,14.7,> 100,> 100,> 100
67.1,46.8,68.2,CCN(CC)CCCOc1cc2ncnc(Nc3nc4ccc(C(=O)Nc5c(C)cccc5Cl)cc4s3)c2cc1OC,9.6,13.2,7.3,10.6,11.2,11.7
41.7,9.9,28.7,COc1cc2c(Nc3nc4ccc(C(=O)Nc5c(C)cccc5C)cc4s3)ncnc2cc1OCCCN1CCOCC1,> 100,> 100,19.2,> 100,> 100,> 100
50,10.5,53.6,CCN(CC)CCCOc1cc2ncnc(Nc3nc4ccc(C(=O)Nc5c(C)cccc5C)cc4s3)c2cc1OC,28.4,> 100,23.7,> 100,66.5,> 100

# From ChEMBL document CHEMBL2375301, “Design and synthesis of novel 4-benzothiazole amino quinazolines Dasatinib derivatives as potential anti-tumor agents” (Eur J Med Chem, 2013)
